Values of other authors, collected in US20080096864A1, “Treatment Of Gastrointestinal Stromal Tumors With Imatinib And Midostaurin” (priority 2003, published 2008).

System: advanced GIST
Conditions: GIST patients on imatinib, one study

Question: With `Cc1ccc(NC(=O)c2ccc(CN3CCN(C)CC3)cc2)cc1Nc1nccc(-c2cccnc2)n1` [imatinib] as the molecule, how does the “primary resistance to imatinib, share of patients” value read?
Answer: 13.7 % of patients
